Assay results from publication PMC11817610, “Stereoselective Synthesis and Biological Evaluation of Perhydroquinoxaline-Based κ Receptor Agonists” (International Journal of Molecular Sciences, 2025).
Where two headings read alike, the source gives them in different places.

Assays:
σ2 receptor [1] = target: T1, σ2 receptor (Rattus norvegicus, UniProt Q5U3Y7); test: biochemical; details: read-out: inhibition of the radioligand binding, σ2 Receptor
T1 construct: The thawed rat liver membrane preparation; tissue Harlan-Winkelmann, Borchen, Germany; host or cells: rat liver membrane homogenate
T1 sequence (Q5U3Y7 1-176): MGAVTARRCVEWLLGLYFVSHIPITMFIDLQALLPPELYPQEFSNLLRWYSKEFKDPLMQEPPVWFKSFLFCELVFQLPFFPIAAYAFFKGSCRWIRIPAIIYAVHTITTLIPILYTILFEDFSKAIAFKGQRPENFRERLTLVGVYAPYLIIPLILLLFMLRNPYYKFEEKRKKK

κ receptor = κ receptor (Cavia porcellus, UniProt P41144); test: κ receptor radioligand binding assay with [3H]U-69,593, guinea pig brain membranes
Chain of κ receptor (P41144 whole entry): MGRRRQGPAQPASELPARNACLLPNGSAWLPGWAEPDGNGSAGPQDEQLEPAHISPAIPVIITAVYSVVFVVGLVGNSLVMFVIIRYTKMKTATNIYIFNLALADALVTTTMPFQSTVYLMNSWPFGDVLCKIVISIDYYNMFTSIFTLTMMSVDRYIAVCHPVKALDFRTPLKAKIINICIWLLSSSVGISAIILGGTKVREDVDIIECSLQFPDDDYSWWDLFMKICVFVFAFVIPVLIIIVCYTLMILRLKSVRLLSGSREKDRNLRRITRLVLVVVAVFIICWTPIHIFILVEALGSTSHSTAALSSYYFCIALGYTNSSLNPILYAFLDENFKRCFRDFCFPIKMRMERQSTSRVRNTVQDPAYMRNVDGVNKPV

σ1 receptor [2] = target: T2, σ1 receptor (Cavia porcellus, UniProt Q60492); test: σ1 receptor radioligand binding assay with [3H]-(+)-pentazocine, guinea pig brain membranes; details: read-out: Ki ± SEM σ1 Receptor
T2 sequence (Q60492 whole entry): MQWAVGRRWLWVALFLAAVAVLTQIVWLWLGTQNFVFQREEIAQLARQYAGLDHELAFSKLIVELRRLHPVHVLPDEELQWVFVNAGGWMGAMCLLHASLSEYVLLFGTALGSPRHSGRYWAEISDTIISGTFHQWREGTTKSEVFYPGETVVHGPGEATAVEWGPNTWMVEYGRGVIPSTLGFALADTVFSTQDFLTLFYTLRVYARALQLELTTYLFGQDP

human serum albumin = human serum albumin (Homo sapiens, UniProt P02768); test: in vitro; details: plasma
Chain of human serum albumin (P02768 25-609): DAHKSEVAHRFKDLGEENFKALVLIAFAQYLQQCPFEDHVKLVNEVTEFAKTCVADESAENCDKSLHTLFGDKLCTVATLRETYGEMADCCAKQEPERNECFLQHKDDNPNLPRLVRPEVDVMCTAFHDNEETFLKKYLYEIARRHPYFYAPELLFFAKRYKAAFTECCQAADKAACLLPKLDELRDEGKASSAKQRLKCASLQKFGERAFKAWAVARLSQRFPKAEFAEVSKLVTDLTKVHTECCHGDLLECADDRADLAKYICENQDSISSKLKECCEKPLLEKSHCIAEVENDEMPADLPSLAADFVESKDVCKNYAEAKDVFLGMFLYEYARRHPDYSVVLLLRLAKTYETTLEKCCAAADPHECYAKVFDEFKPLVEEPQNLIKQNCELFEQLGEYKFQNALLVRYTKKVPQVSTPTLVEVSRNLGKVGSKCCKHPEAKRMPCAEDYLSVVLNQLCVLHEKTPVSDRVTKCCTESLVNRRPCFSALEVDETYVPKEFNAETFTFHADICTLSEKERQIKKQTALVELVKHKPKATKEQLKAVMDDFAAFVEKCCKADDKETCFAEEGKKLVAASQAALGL

[3] = mouse, microsomes, 1.5 h
δ receptor [4] = target: T3, δ receptor (Rattus norvegicus, UniProt P33533); test: δ receptor radioligand binding assay with [3H]DPDPE, rat brain membranes; details: read-out: inhibition of the radioligand binding, δ Receptor
T3 construct: The thawed rat brain membrane preparation (about 75 μg of the protein) was incubated; tissue Harlan-Winkelmann, Borchen, Germany; host or cells: rat brain membrane homogenate
T3 sequence (P33533 whole entry): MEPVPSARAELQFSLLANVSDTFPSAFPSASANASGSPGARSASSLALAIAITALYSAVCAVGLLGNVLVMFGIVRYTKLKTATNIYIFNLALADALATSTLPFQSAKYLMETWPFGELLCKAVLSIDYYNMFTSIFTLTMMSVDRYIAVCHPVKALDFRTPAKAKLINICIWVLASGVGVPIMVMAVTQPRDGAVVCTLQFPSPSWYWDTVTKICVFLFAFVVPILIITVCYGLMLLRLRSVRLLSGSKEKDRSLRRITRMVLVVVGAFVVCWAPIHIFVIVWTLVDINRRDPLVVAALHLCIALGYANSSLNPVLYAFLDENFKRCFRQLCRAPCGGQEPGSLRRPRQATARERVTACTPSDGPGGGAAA

physchem = details: pH 7.4
μ receptor [5] = target: T4, μ receptor (Cavia porcellus, UniProt A0ACM8Q262); test: μ receptor radioligand binding assay with [3H]DAMGO, guinea pig brain membranes
T4 sequence (A0ACM8Q262 1-400): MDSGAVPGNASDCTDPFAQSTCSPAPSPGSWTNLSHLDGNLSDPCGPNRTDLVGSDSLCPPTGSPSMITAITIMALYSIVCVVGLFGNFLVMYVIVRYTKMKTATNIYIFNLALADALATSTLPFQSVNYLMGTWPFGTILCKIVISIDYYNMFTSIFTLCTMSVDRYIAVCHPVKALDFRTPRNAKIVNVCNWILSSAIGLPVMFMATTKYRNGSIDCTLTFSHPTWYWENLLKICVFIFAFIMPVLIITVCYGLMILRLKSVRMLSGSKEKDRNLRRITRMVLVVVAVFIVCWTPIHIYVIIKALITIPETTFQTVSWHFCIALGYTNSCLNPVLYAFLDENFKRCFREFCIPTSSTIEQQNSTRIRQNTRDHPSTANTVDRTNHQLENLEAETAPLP

μ receptor [6] = target: T4, μ receptor; design: method as in PMID 25062506; details: [3H]DAMGO, guinea pig brain membranes; cited from earlier work
σ1 receptor [7] = target: T2, σ1 receptor; details: [3H]-(+)-pentazocine, guinea pig brain membranes; cited from earlier work
δ receptor [8] = target: T3, δ receptor; design: method as in PMID 25062506; details: test compound 1 μM, [3H]DPDPE, rat brain membranes; cited from earlier work
σ2 receptor [9] = target: T1, σ2 receptor; details: read-out: Ki σ2 Receptor; [3H]DTG, rat liver membranes; cited from earlier work

CC(C)(C)[Si](C)(C)O[C@@H]1C[C@@H]2[C@@H]([C@@H](N3CCCC3)C1)N(C(=O)Cc1ccc(Cl)c(Cl)c1)CCN2Cc1ccccc1 (racemic) [compound 13, 1-[(4aRS,6SR,8SR,8aRS)-4-Benzyl-6-(tert-butyldimethylsilyloxy)-8-(pyrrolidin-1-yl)-decahydroquinoxalin-1-yl]-2-(3,4-dichlorophenyl)ethan-1-one]
inhibition at 1 µM (σ2 receptor [1]): 7%
inhibition at 1 µM (κ receptor; read-out: inhibition of the radioligand binding, κ Receptor): 0%
Ki (σ1 receptor [2]): 0.487 µM

O=C(Cc1ccc(Cl)c(Cl)c1)N1CCN(Cc2ccccc2)[C@@H]2C[C@@H](O)C[C@H](N3CCCC3)[C@H]21 (racemic) [compound 14, 1-[(4aRS,6SR,8SR,8aRS)-4-Benzyl-6-hydroxy-8-(pyrrolidin-1-yl)decahydro-quinoxalin-1-yl]-2-(3,4-dichlorophenyl)ethan-1-one]
inhibition at 1 µM (σ2 receptor [1]): 0%
fraction unbound (human serum albumin): 0.075
compound remaining unchanged (metabolic stability) [3]: 92 ± 1%
selectivity for κ receptor over μ, δ, σ1 and σ2 receptors (κ receptor): high selectivity
Ki (κ receptor; [3H]U-69,593, guinea pig brain membranes, with SEM n = 3, without SEM one experiment): 0.599 ± 0.217 µM
inhibition at 1 µM (δ receptor [4]): 11%
logD (physchem): 1.72 ± 0.05
Ki (σ1 receptor [2]): 7.9 µM
inhibition at 1 µM (μ receptor [5]; read-out: inhibition of the radioligand binding, μ Receptor): 0%

O=C(Cc1ccc(Cl)c(Cl)c1)N1CCN(Cc2ccccc2)C2CCCC(N3CCCC3)C21 (centres unmarked) [2a]
Ki (μ receptor [6]): 3.9 µM
Ki (σ1 receptor [7]): 1.39 µM
inhibition of the radioligand binding, δ Receptor (δ receptor [8]): 39%
Ki (σ2 receptor [9]): 4.39 µM

[3H]-DAMGO [reference compound]
Kd (μ receptor [5]; guinea pig brain membrane preparation): 0.00057 µM
